Values after ≈ are worked out from the molar mass of the structure shown.
Experiments:
Test in all cases: Antibacterial test (MIC), The Japan Chemotherapeutic Association method
[1] = tested on: M. R. Staphylococcus aureus 421; type: cell-based, Methicillin-resistant Staphylococcus aureus; conditions: M. R. Staphylococcus aureus 421 (MRSA); Mueller Hinton Medium, 10^6 /ml, 37° C., determined after 24 hours
Description: (§1) Antibacterial activities against microorganisms shown in Tables 1-3 were measured according to the MIC measurement method of The Japan Chemotherapeutic Association. Sparfloxacin was used as a control agent.
(§2) Medium: Mueller Hinton Medium
(§3) A 1,000 micrograms/ml solution in 25% dimethylsulfoxide was prepared. A series of solutions with various concentrations (100 micrograms to 0.006 micrograms) were prepared by successively diluting the solution with sterilized water by a factor of 1/2.
(§4) Amount of inoculated bacteria: 10^6 /ml
(§5) Cultivation conditions: 37° C., 48 hours
(§6) Determination: After 24 hours.

[2] = tested on: M. R. Staphylococcus aureus 395; type: cell-based, Methicillin-resistant Staphylococcus aureus; conditions: M. R. Staphylococcus aureus 395 (MRSA); Mueller Hinton Medium, 10^6 /ml, 37° C., determined after 24 hours
Description: as §1, §2, §3, §4, §5, §6

[3] = tested on: M. R. Staphylococcus aureus 419; type: cell-based, Methicillin-resistant Staphylococcus aureus; conditions: M. R. Staphylococcus aureus 419 (MRSA); Mueller Hinton Medium, 10^6 /ml, 37° C., determined after 24 hours
Description: as §1, §2, §3, §4, §5, §6

[4] = tested on: M. R. Staphylococcus aureus 415; type: cell-based, Methicillin-resistant Staphylococcus aureus; conditions: M. R. Staphylococcus aureus 415 (MRSA); Mueller Hinton Medium, 10^6 /ml, 37° C., determined after 24 hours
Description: as §1, §2, §3, §4, §5, §6

[5] = tested on: M. R. Staphylococcus aureus 420; type: cell-based, Methicillin-resistant Staphylococcus aureus; conditions: M. R. Staphylococcus aureus 420 (MRSA); Mueller Hinton Medium, 10^6 /ml, 37° C., determined after 24 hours
Description: as §1, §2, §3, §4, §5, §6

[6] = tested on: Pseudomonas aeruginosa IFO 12582; type: cell-based; conditions: IFO12582, Mueller Hinton Medium, 10^6 /ml, 37° C., determined after 24 hours
Description: as §1, §2, §3, §4, §5, §6

Escherichia coli K-12 = type: cell-based; conditions: K12, Mueller Hinton Medium, 10^6 /ml, 37° C., determined after 24 hours
Description: as §1, §2, §3, §4, §5, §6

[7] = tested on: Klebsiella pneumoniae IFO 13541; type: cell-based; conditions: IFO13541, Mueller Hinton Medium, 10^6 /ml, 37° C., determined after 24 hours
Description: as §1, §2, §3, §4, §5, §6

Proteus rettgeri = type: cell-based; conditions: Providencia rettgeri, Mueller Hinton Medium, 10^6 /ml, 37° C., determined after 24 hours
Description: as §1, §2, §3, §4, §5, §6

Proteus vulgaris OXK = type: cell-based; conditions: Mueller Hinton Medium, 10^6 /ml, 37° C., determined after 24 hours
Description: as §1, §2, §3, §4, §5, §6

[8] = tested on: Staphylococcus aureus Terashima; type: cell-based; conditions: Mueller Hinton Medium, 10^6 /ml, 37° C., determined after 24 hours
Description: as §1, §2, §3, §4, §5, §6

Shigella flexneri 2b = type: cell-based; conditions: Mueller Hinton Medium, 10^6 /ml, 37° C., determined after 24 hours
Description: as §1, §2, §3, §4, §5, §6

[9] = tested on: Pseudomonas aeruginosa P2; type: cell-based; conditions: Mueller Hinton Medium, 10^6 /ml, 37° C., determined after 24 hours
Description: as §1, §2, §3, §4, §5, §6

[10] = tested on: Staphylococcus epidermidis ATCC 12228; type: cell-based; conditions: ATCC12228, Mueller Hinton Medium, 10^6 /ml, 37° C., determined after 24 hours
Description: as §1, §2, §3, §4, §5, §6

[11] = tested on: Staphylococcus aureus FDA 209P; type: cell-based; conditions: FDA209P, Mueller Hinton Medium, 10^6 /ml, 37° C., determined after 24 hours
Description: as §1, §2, §3, §4, §5, §6

Salmonella typhi TD = type: cell-based; conditions: Salmonella enterica, 24 h
Description: as §1, §2, §3, §4, §5, §6

Serratia marcescens NHL = type: cell-based; conditions: Mueller Hinton Medium, 10^6 /ml, 37° C., determined after 24 hours
Description: as §1, §2, §3, §4, §5, §6

[12] = tested on: Staphylococcus aureus Smith; type: cell-based; conditions: Mueller Hinton Medium, 10^6 /ml, 37° C., determined after 24 hours
Description: as §1, §2, §3, §4, §5, §6

[13] = tested on: Pseudomonas aeruginosa IFO 13736; type: cell-based; conditions: IFO13736, Mueller Hinton Medium, 10^6 /ml, 37° C., determined after 24 hours
Description: as §1, §2, §3, §4, §5, §6

[14] = tested on: Micrococcus lysodeikticus IFO 3333; type: cell-based; conditions: Micrococcus luteus, IFO3333, Mueller Hinton Medium, 10^6 /ml, 37° C., determined after 24 hours
Description: as §1, §2, §3, §4, §5, §6

[15] = tested on: Bacillus subtilis ATCC 6633; type: cell-based; conditions: ATCC6633, Mueller Hinton Medium, 10^6 /ml, 37° C., determined after 24 hours
Description: as §1, §2, §3, §4, §5, §6

[16] = tested on: Klebsiella pneumoniae ATCC 10031; type: cell-based; conditions: ATCC10031, Mueller Hinton Medium, 10^6 /ml, 37° C., determined after 24 hours
Description: as §1, §2, §3, §4, §5, §6

Sarcina lutea ATCC 9341 = type: cell-based; conditions: Micrococcus luteus, ATCC9341, Mueller Hinton Medium, 10^6 /ml, 37° C., determined after 24 hours
Description: as §1, §2, §3, §4, §5, §6

Escherichia coli O-1 = type: cell-based; conditions: O1, Mueller Hinton Medium, 10^6 /ml, 37° C., determined after 24 hours
Description: as §1, §2, §3, §4, §5, §6

[17] = tested on: Streptococcus faecalis IFO 12964; type: cell-based; conditions: Enterococcus faecalis, IFO12964, Mueller Hinton Medium, 10^6 /ml, 37° C., determined after 24 hours
Description: as §1, §2, §3, §4, §5, §6

| SMILES | MIC [1] | MIC [2] | MIC [3] | MIC [4] | MIC [5] | MIC [6] | MIC (Escherichia coli K-12) | MIC [7] | MIC (Proteus rettgeri) | MIC (Proteus vulgaris OXK) | MIC [8] | MIC (Shigella flexneri 2b) | MIC [9] | MIC [10] | MIC [11] | MIC (Salmonella typhi TD) | MIC (Serratia marcescens NHL) | MIC [12] | MIC [13] | MIC [14] | also measured |
| --- | --- | --- | --- | --- | --- | --- | --- | --- | --- | --- | --- | --- | --- | --- | --- | --- | --- | --- | --- | --- | --- |
| Nc1c(F)c(N2CCNC(=O)CC2)c(F)c2c1c(=O)c(C(=O)O)cn2C1CC1 [Compound No. 1-2, 5-Amino-1-cyclopropyl-6,8-difluoro-7-(2,3,4,5,6,7-hexahydro-1H-1,4-diazepin-5-on-1-yl)-1,4-dihydro-4-oxo-quinoline-3-carboxylic acid] | 0.012 µg/mL (≈ 0.0306 µM) | 0.05 µg/mL (≈ 0.127 µM) | 0.024 µg/mL (≈ 0.0612 µM) | 0.024 µg/mL (≈ 0.0612 µM) | 0.05 µg/mL (≈ 0.127 µM) | 3.13 µg/mL (≈ 7.98 µM) | 0.05 µg/mL (≈ 0.127 µM) | 0.05 µg/mL (≈ 0.127 µM) | 0.39 µg/mL (≈ 0.994 µM) | 0.05 µg/mL (≈ 0.127 µM) | 0.05 µg/mL (≈ 0.127 µM) | 0.006 µg/mL (≈ 0.0153 µM) | 6.25 µg/mL (≈ 15.9 µM) | 0.05 µg/mL (≈ 0.127 µM) | 0.012 µg/mL (≈ 0.0306 µM) | 0.05 µg/mL (≈ 0.127 µM) | 0.78 µg/mL (≈ 1.99 µM) | 0.006 µg/mL (≈ 0.0153 µM) | 3.13 µg/mL (≈ 7.98 µM) | 0.05 µg/mL (≈ 0.127 µM) | MIC [15]: 0.006 µg/mL (≈ 0.0153 µM); MIC [16]: 0.006 µg/mL (≈ 0.0153 µM); MIC (Sarcina lutea ATCC 9341): 0.39 µg/mL (≈ 0.994 µM); MIC (Escherichia coli O-1): 0.05 µg/mL (≈ 0.127 µM); MIC [17]: 0.2 µg/mL (≈ 0.51 µM) |
| C[C@@H]1CN(c2c(F)c(N)c3c(=O)c(C(=O)O)cn(C4CC4)c3c2F)C[C@H](C)N1 [Spafloxacin, reference compound] | 0.05 µg/mL (≈ 0.127 µM) | 0.1 µg/mL (≈ 0.255 µM) | 0.05 µg/mL (≈ 0.127 µM) | 0.05 µg/mL (≈ 0.127 µM) | 0.1 µg/mL (≈ 0.255 µM) | 1.56 µg/mL (≈ 3.98 µM) | 0.012 µg/mL (≈ 0.0306 µM) | 0.012 µg/mL (≈ 0.0306 µM) | 0.1 µg/mL (≈ 0.255 µM) | 0.05 µg/mL (≈ 0.127 µM) | 0.1 µg/mL (≈ 0.255 µM) | 0.006 µg/mL (≈ 0.0153 µM) | 1.56 µg/mL (≈ 3.98 µM) | 0.2 µg/mL (≈ 0.51 µM) | 0.024 µg/mL (≈ 0.0612 µM) | 0.006 µg/mL (≈ 0.0153 µM) | 0.2 µg/mL (≈ 0.51 µM) | 0.05 µg/mL (≈ 0.127 µM) | 0.78 µg/mL (≈ 1.99 µM) | 0.39 µg/mL (≈ 0.994 µM) | MIC [15]: 0.024 µg/mL (≈ 0.0612 µM); MIC [16]: 0.006 µg/mL (≈ 0.0153 µM); MIC (Sarcina lutea ATCC 9341): 1.56 µg/mL (≈ 3.98 µM); MIC (Escherichia coli O-1): 0.012 µg/mL (≈ 0.0306 µM); MIC [17]: 0.39 µg/mL (≈ 0.994 µM) |
| Nc1c(F)c(N2CCNC(=O)CC2)c(Cl)c2c1c(=O)c(C(=O)O)cn2C1CC1 [1-10, 5-Amino-8-chloro-1-cyclopropyl-6-fluoro-7-(2,3,4,5,6,7-hexahydro-1H-1,4-diazepin-5-on-1-yl)-4-oxo-quinoline-3-carboxylic acid] | 0.024 µg/mL (≈ 0.0587 µM) | 0.024 µg/mL (≈ 0.0587 µM) | 0.024 µg/mL (≈ 0.0587 µM) | 0.012 µg/mL (≈ 0.0294 µM) | 0.012 µg/mL (≈ 0.0294 µM) | 3.13 µg/mL (≈ 7.66 µM) | 0.1 µg/mL (≈ 0.245 µM) | 0.1 µg/mL (≈ 0.245 µM) | 0.78 µg/mL (≈ 1.91 µM) | 0.2 µg/mL (≈ 0.489 µM) | 0.1 µg/mL (≈ 0.245 µM) | 0.006 µg/mL (≈ 0.0147 µM) | 12.5 µg/mL (≈ 30.6 µM) | 0.024 µg/mL (≈ 0.0587 µM) | 0.012 µg/mL (≈ 0.0294 µM) | 0.1 µg/mL (≈ 0.245 µM) | 1.56 µg/mL (≈ 3.82 µM) | 0.006 µg/mL (≈ 0.0147 µM) | 6.25 µg/mL (≈ 15.3 µM) | 0.05 µg/mL (≈ 0.122 µM) | MIC [15]: 0.012 µg/mL (≈ 0.0294 µM); MIC [16]: 0.05 µg/mL (≈ 0.122 µM); MIC (Sarcina lutea ATCC 9341): 0.2 µg/mL (≈ 0.489 µM); MIC (Escherichia coli O-1): 0.1 µg/mL (≈ 0.245 µM); MIC [17]: 0.2 µg/mL (≈ 0.489 µM) |
| CN1CCN(c2c(F)c(N)c3c(=O)c(C(=O)O)cn(C4CC4)c3c2F)CCC1=O [1-8, 5-Amino-1-cyclopropyl-6,8-difluoro-7-(4-methyl-2,3,4,5,6,7-hexahydro-1H-1,4-diazepin-5-on-1-yl)-1,4-dihydro-4-oxoquinoline-3-carboxylic acid] | 0.024 µg/mL (≈ 0.0591 µM) | 0.05 µg/mL (≈ 0.123 µM) | 0.024 µg/mL (≈ 0.0591 µM) | 0.024 µg/mL (≈ 0.0591 µM) | 0.05 µg/mL (≈ 0.123 µM) | 6.25 µg/mL (≈ 15.4 µM) | 0.1 µg/mL (≈ 0.246 µM) | 0.1 µg/mL (≈ 0.246 µM) | 0.39 µg/mL (≈ 0.96 µM) | 0.1 µg/mL (≈ 0.246 µM) | 0.05 µg/mL (≈ 0.123 µM) | 0.006 µg/mL (≈ 0.0148 µM) | 12.5 µg/mL (≈ 30.8 µM) | 0.1 µg/mL (≈ 0.246 µM) | 0.006 µg/mL (≈ 0.0148 µM) | 0.1 µg/mL (≈ 0.246 µM) | 1.56 µg/mL (≈ 3.84 µM) | 0.012 µg/mL (≈ 0.0295 µM) | 3.13 µg/mL (≈ 7.7 µM) | 0.1 µg/mL (≈ 0.246 µM) | MIC [15]: 0.006 µg/mL (≈ 0.0148 µM); MIC [16]: 0.006 µg/mL (≈ 0.0148 µM); MIC (Sarcina lutea ATCC 9341): 0.39 µg/mL (≈ 0.96 µM); MIC (Escherichia coli O-1): 0.1 µg/mL (≈ 0.246 µM); MIC [17]: 0.2 µg/mL (≈ 0.492 µM) |
